Consider one molecule from publication PMC7170383 (Pharmaceutical Biology, 2020).

On the set-up of data set [1]: method as in Jiang et al. [2016]. As to conditions: rats, orally administered CEP 10 mg/kg; ref Jiang et al. [2016]; cited from earlier work.
Data set [2] addresses T1, CYP3A4 (Homo sapiens, UniProt P08684).
T1 construct: CYP3A4 catalysed reactions (testosterone 6β-hydroxylation) in pooled HLM; from tissue; host or cells: pooled human liver microsomes
In words: Time-dependent inhibition of CYP3A4 in human liver microsomes. The format is in vitro ADME. How it is done:
(§1) After incubation, an aliquot (20 μL) was transferred to another incubation tube (final volume 200 μL) containing an NADPH-generating system and probe substrates whose final concentrations were approximate to Km. Then, further incubations were performed to measure the residual activity. After being incubated for 0, 5, 10, 15, and 30 min, the reactions were terminated by adding a 100 μL acetonitrile internal standard mix and then placed on ice; the corresponding metabolites were determined by HPLC.
Background: Liver microsomes are a subcellular fraction often used to study metabolism.

The target in data set [3] is T2, CYP2E1 (Homo sapiens, UniProt P05181).
T2 construct: CYP2E1 catalysed reactions (chlorzoxazone 6-hydroxylation) in pooled HLM; from tissue; host or cells: pooled human liver microsomes
In words: Time-dependent inhibition of CYP2E1 in human liver microsomes. The format is in vitro ADME. As to conditions: CEP 20 μM, pre-incubation with HLM 30 min, incubation 0–30 min. How it is done:
as §1

Data set [4] has as its target T1, CYP3A4. Put plainly: CYP3A4 inhibition in pooled human liver microsomes (testosterone 6β-hydroxylation). The format is in vitro ADME. Here is the method:
All incubations were performed in triplicate, and the mean values were utilized.
The reaction was terminated by adding a 100 μL acetonitrile (10% trichloroacetic acid for CYP2A6) internal standard mix, and the solution was placed on ice. The mixture was centrifuged at 12,000 rpm for 10 min, and an aliquot (50 μL) of supernatant was transferred for HPLC analysis.
The enzyme kinetic parameters for the probe reaction were estimated from the best fit line, using least-squares linear regression of the inverse substrate concentration versus the inverse velocity (Lineweaver-Burk plots), and the mean values were used to calculate Vmax and Km. […] The mechanism of the inhibition was inspected using the Lineweaver–Burk plots and the enzyme inhibition models.

Data set [5] concerns the target T2, CYP2E1. Put plainly: CYP2E1 inhibition in pooled human liver microsomes (chlorzoxazone 6-hydroxylation). The format is in vitro ADME. How it is done:
(§2) Marker reactions of eight CYP isoforms were examined, and apparent Km values were estimated to characterize the pooled HLMs. All incubations were performed in triplicate, and the mean values were utilized. The typical incubation systems contained 100 mM potassium phosphate buffer (pH 7.4), NADPH generating system (1 mM NADP^+, 10 mM glucose-6-phosphate, 1 U/mL of glucose-6-phosphate dehydrogenase and 4 mM MgCl2), the appropriate concentration of HLMs, a corresponding probe substrate and hispidulin (or positive inhibitor for different probe reactions) in a final volume of 200 μL.
(§3) There was a 3-min preincubation period (at 37 °C) before the reaction was initiated by adding an NADPH-generating system. The reaction was terminated by adding a 100 μL acetonitrile (10% trichloroacetic acid for CYP2A6) internal standard mix, and the solution was placed on ice. The mixture was centrifuged at 12,000 rpm for 10 min, and an aliquot (50 μL) of supernatant was transferred for HPLC analysis. The instrument used in this study was Agilent 1260 series instrument with DAD and FLD detector, and the quantitative assay for the corresponding metabolites was performed as previously reported (Lang et al. [2016]; Zhang et al. [2017]). The quantitative analysis of metabolites can represent the activity of corresponding CYPs.
(§4) The enzyme kinetic parameters for the probe reaction were estimated from the best fit line, using least-squares linear regression of the inverse substrate concentration versus the inverse velocity (Lineweaver-Burk plots), and the mean values were used to calculate Vmax and Km. Inhibition data from the experiments that were conducted using multiple compound concentrations were represented by Dixon plots, and inhibition constant (Ki) values were calculated using non-linear regression according to the following equation: v=(VmaxS/Km(1+I/Ki)+S) where I is the concentration of the compound, Ki is the inhibition constant, S is the concentration of the substrate, and Km is the substrate concentration at half the maximum velocity (Vmax) of the reaction. The mechanism of the inhibition was inspected using the Lineweaver–Burk plots and the enzyme inhibition models. The data comparison was performed using Student’s t-test and performed using IBM SPSS statistics version 20 (IBM SPSS Inc., Armonk, NY).

Another data set addresses T3, CYP2C8 (Homo sapiens, UniProt P10632).
T3 construct: from tissue; host or cells: pooled human liver microsomes
T3 sequence (P10632 1-490): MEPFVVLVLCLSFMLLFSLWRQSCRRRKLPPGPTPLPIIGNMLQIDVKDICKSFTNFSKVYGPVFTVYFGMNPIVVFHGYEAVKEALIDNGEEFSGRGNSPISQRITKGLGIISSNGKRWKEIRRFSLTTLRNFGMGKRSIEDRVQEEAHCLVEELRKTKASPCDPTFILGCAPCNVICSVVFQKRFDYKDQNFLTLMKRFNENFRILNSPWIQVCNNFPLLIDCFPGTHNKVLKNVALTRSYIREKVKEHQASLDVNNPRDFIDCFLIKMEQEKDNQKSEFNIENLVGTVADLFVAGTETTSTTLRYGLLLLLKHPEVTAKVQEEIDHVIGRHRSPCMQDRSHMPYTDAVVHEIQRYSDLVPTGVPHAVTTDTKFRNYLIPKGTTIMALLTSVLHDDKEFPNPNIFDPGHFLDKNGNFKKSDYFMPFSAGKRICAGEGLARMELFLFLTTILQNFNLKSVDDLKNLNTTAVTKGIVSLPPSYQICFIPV
In words: CYP2C8 inhibition in pooled human liver microsomes (paclitaxel 6α-hydroxylation). The format is in vitro ADME. As to conditions: CEP 100 μM, pooled HLMs. Here is the method: as §2, §3

For data set [6], the target named is T4, CYP2C9 (Homo sapiens, UniProt P11712).
T4 construct: from tissue; host or cells: pooled human liver microsomes
In words: Time-dependent inhibition of CYP2C9 in human liver microsomes. The class given is in vitro ADME. As to conditions: CEP 20 μM, pre-incubation with HLM 30 min, incubation 0–30 min. How it is done:
as §1

The target in a further data set is T5, CYP1A2 (Homo sapiens, UniProt P05177).
T5 construct: from tissue; host or cells: pooled human liver microsomes
T5 sequence (P05177 1-516): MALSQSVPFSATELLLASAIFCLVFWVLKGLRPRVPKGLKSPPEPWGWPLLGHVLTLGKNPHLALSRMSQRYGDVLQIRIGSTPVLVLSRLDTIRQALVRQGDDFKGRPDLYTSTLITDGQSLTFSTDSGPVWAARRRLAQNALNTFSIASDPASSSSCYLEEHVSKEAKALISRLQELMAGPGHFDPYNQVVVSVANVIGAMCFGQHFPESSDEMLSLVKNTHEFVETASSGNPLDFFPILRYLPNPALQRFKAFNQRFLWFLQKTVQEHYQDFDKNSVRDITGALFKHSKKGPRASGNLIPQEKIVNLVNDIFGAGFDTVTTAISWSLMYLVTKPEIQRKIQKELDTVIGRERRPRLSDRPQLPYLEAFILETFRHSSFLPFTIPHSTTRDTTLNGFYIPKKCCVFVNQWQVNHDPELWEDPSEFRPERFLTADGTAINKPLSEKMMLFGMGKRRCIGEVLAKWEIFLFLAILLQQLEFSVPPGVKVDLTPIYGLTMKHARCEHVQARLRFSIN
In words: CYP1A2 inhibition in pooled human liver microsomes (phenacetin O-deethylation). Conditions: CEP 100 μM, pooled HLMs. The class given is in vitro ADME. How it is done:
as §2, §3

Data set [7] addresses T4, CYP2C9. In words: CYP2C9 inhibition in pooled human liver microsomes (diclofenac 4′-hydroxylation). The format is in vitro ADME. How it is done:
as §2, §3, §4

Another data set addresses T6, CYP2A6 (Homo sapiens, UniProt P11509).
T6 construct: from tissue; host or cells: pooled human liver microsomes
T6 sequence (P11509 1-494): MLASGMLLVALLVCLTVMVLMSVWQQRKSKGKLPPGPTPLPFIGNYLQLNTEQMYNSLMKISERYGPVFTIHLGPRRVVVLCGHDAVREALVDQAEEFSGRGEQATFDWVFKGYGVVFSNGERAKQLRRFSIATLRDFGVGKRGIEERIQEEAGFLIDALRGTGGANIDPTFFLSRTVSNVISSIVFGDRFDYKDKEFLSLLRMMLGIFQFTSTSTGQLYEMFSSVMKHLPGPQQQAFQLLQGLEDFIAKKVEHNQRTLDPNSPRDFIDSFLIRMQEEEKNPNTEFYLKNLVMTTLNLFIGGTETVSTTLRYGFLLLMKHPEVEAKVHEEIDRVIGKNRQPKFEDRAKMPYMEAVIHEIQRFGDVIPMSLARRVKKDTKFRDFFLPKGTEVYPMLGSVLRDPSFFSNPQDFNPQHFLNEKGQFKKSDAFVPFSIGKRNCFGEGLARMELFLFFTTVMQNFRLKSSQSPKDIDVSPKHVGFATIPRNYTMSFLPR
Put plainly: CYP2A6 inhibition in pooled human liver microsomes (coumarin 7-hydroxylation). The format is in vitro ADME. Conditions: CEP 100 μM, pooled HLMs. How it is done: as §2, §3

The target in a further data set is T7, CYP2D6 (Homo sapiens, UniProt P10635).
T7 construct: from tissue; host or cells: pooled human liver microsomes
Put plainly: CYP2D6 inhibition in pooled human liver microsomes (dextromethorphan O-demethylation). The format is in vitro ADME. Conditions: CEP 100 μM, pooled HLMs. Here is the method: as §2, §3

The next data set has as its target T8, CYP2C19 (Homo sapiens, UniProt P33261).
T8 construct: from tissue; host or cells: pooled human liver microsomes
Put plainly: CYP2C19 inhibition in pooled human liver microsomes (S-mephenytoin 4-hydroxylation). The class given is in vitro ADME. As to conditions: CEP 100 μM, pooled HLMs. Here is the method:
as §2, §3

T1 sequence (P08684 whole entry): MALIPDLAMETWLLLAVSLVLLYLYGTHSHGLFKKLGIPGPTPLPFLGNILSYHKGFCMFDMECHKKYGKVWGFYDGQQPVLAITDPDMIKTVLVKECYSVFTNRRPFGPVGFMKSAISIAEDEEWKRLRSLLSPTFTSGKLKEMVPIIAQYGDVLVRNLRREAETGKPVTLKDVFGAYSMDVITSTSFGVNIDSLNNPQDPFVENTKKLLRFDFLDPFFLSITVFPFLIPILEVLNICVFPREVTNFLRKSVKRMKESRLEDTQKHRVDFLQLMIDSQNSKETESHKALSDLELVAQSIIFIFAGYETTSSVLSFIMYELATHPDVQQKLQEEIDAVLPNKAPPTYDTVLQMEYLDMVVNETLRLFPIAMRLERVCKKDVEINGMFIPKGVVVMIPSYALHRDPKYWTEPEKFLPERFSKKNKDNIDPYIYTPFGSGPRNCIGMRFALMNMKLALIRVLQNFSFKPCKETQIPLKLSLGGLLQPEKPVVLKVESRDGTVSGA
T2 sequence (P05181 whole entry): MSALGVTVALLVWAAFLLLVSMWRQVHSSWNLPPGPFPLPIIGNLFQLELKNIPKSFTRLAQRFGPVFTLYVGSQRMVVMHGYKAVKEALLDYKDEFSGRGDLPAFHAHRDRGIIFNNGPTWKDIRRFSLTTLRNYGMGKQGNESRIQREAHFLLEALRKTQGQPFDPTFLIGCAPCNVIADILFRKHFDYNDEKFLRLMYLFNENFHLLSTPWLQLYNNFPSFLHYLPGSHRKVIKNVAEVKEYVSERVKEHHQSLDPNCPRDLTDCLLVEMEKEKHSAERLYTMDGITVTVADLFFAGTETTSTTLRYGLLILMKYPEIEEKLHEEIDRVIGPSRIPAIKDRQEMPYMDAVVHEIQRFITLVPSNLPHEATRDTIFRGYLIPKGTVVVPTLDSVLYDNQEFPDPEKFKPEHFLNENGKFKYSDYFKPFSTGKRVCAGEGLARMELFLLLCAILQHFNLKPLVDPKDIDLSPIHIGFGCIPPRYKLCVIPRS
T4 sequence (P11712 whole entry): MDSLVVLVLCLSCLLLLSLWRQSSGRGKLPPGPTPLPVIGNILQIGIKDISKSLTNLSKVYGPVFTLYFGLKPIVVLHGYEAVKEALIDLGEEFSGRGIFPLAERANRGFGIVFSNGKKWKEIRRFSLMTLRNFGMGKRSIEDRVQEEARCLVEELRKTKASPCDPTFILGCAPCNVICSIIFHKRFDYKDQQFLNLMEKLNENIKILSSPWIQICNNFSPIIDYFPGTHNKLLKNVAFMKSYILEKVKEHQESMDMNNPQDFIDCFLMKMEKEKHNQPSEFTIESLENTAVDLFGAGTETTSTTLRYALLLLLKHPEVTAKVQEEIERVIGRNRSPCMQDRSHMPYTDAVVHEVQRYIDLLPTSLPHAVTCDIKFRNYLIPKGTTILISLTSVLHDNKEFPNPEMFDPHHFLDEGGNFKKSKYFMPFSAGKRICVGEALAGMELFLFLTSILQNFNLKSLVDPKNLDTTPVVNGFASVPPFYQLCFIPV
T8 sequence (P33261 whole entry): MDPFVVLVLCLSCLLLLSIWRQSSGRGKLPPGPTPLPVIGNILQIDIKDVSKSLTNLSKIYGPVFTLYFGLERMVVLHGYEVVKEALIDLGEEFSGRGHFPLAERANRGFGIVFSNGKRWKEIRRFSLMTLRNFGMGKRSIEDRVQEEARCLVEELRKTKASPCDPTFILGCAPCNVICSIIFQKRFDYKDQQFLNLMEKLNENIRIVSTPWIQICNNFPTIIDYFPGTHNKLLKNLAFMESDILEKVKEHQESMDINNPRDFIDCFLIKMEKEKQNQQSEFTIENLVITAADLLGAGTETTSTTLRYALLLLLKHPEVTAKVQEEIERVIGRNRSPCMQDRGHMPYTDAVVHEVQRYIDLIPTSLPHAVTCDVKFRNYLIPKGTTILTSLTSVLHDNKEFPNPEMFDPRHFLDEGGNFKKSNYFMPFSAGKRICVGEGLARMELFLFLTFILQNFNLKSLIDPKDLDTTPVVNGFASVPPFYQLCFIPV
T7 sequence (P10635 whole entry): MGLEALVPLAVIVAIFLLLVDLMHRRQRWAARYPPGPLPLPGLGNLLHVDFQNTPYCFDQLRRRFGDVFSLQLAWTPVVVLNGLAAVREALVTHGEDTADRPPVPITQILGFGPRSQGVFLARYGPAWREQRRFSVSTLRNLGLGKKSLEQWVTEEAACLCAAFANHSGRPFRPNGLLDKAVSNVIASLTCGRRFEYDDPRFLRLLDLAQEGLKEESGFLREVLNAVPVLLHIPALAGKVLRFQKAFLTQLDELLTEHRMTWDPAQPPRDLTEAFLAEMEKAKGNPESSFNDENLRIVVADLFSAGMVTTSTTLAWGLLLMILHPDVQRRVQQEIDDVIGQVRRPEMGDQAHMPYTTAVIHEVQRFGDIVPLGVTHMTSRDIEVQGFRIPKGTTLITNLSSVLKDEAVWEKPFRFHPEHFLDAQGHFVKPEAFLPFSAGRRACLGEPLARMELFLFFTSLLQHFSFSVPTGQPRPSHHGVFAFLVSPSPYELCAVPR

With `COc1ccc2cc1Oc1ccc(cc1)C[C@H]1c3c(cc4c(c3Oc3cc5c(cc3OC)CCN(C)[C@@H]5C2)OCO4)CCN1C` [CEP, Cepharanthine], in [1], the “plasma Cmax” value was “approximately 0.05 μg/mL”. The “Time-dependent change of CYP3A4 activity” value on CYP3A4 [2] (CEP 20 μM, pre-incubation with HLM 30 min, incubation 0–30 min) is on record as “decreased with the incubation time”. Moreover, the “CYP3A4 inactivated each minute at a saturating concentration of CEP” value at CYP3A4 [2] (HLM, from Kinact) is recorded as “about 5.8%”. Besides, the “Time-dependent change of CYP2E1 activity” value at CYP2E1 [3] is given as “not affected”. The activity at 100 μM was determined as 12.6% at CYP3A4 [4] (human, pooled human liver microsomes, pH 7.4, probe testosterone (6β-hydroxylation), read-out: CYP3A4 activity, % of control activity); 23.6% on CYP2E1 [5] (human, pooled human liver microsomes, pH 7.4, probe chlorzoxazone (6-hydroxylation), read-out: CYP2E1 activity, % of control activity); 18.1% at CYP2C9 [7] (human, pooled human liver microsomes, pH 7.4, probe diclofenac (4′-hydroxylation), read-out: CYP2C9 activity, % of control activity). On CYP3A4 [4] (pooled HLMs), the “Inhibition manner on CYP3A4 (Lineweaver–Burk plots)” value is recorded as “non-competitive”. The Ki was 11.8 µM on CYP2E1 [5] and 13.1 µM at CYP2C9 [7]. Further, the “Inhibition manner on CYP2E1 (Lineweaver–Burk plots)” value at CYP2E1 [5] (pooled HLMs) is “competitive”. In addition, the IC50 on CYP2E1 [5] (pooled HLMs, chlorzoxazone 6-hydroxylation) was determined as 25.6 µM; on CYP2C9 [7] (pooled HLMs, diclofenac 4′-hydroxylation) it was 24.6 µM. Further, on CYP2C8, the “Effect on CYP2C8 activity” value was “not affected”. At CYP2C9 [6], the “Time-dependent change of CYP2C9 activity” value is recorded as “not affected”. In addition, the “Effect on CYP1A2 activity” value on CYP1A2 is listed as “not affected”. Further, the “Inhibition manner on CYP2C9 (Lineweaver–Burk plots)” value on CYP2C9 [7] (pooled HLMs) was “competitive”. Further, the “Effect on CYP2A6 activity” value at CYP2A6 is on record as “not affected”. Besides, the “Effect on CYP2D6 activity” value on CYP2D6 is recorded as “not affected”. In addition, the “Effect on CYP2C19 activity” value at CYP2C19 was “not affected”.

The Ki is a dissociation constant, usually derived from enzyme kinetics or from competition with a known ligand. The IC50 is the concentration that gives 50% inhibition. A high value points to a need for much substance.
